Measured values published in US12285012B2, “Compositions comprising pyridine carboxylate herbicides with acetolactate synthase (ALS) inhibitor herbicides” (Corteva Agriscience LLC, priority 2018, dated 2025).
Like-named read-outs stand apart in the source and are kept apart here.

What was measured:
[1] = tested on: Canadian thistle (CIRAR, Cirsium arvense); assay: Greenhouse postemergence herbicidal effect; assay type: in vivo
Procedure, shortened: (§1)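 Plants grown in a greenhouse (~14 h photoperiod, about 23 °C day/22 °C night) were sprayed postemergence at the second or third true leaf stage. Formulations contained cloquintocet-mexyl safener; pyridine carboxylate rates are in g ae/ha, ALS inhibitor rates in g ai/ha. Injury versus solvent-blank controls was scored visually (0–100%) after 20–22 d.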

[2] = tested on: spring rape (BRSNN, Brassica napus); assay: Greenhouse postemergence herbicidal effect; assay type: in vivo
Procedure, shortened: (§2)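 Injury was rated visually after 20-22 d on a 0 (none) to 100% (complete kill) scale relative to solvent-sprayed controls, with sub-irrigation to avoid wash-off. Rates were given in g ae/ha or g ai/ha depending on component.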

[3] = tested on: spring wheat (TRZAS); assay type: in vivo, Triticum aestivum
Procedure, shortened: as §1

[4] = tested on: common sunflower (HELAN, Helianthus annuus); assay: Greenhouse postemergence herbicidal effect; assay type: in vivo
Source text: (§3) Seeds of the desired test plant species were planted in a 90:10% v/v (volume/volume) mixture of PRO-MIX® BX (Premier Tech Horticulture, Quakertown, PA, USA) and PROFILE® GREENS GRADE™ (Profile Products LLC, Buffalo Grove, IL, USA) planting mixture, which typically has a pH of 5.2 to 6.2 and an organic matter content of at least 50 percent, in plastic pots with a surface area of 103.2 square centimeters (cm^2). In some aspects, to ensure good germination and healthy plants, a fungicide treatment and/or other chemical or physical treatment was applied. The plants were grown for 7-36 days (d) in a greenhouse with an approximate 14-hour (h) photo-period which was maintained at about 23° C. during the day and 22° C. during the night. Nutrients and water were added on a regular basis and supplemental lighting was provided with overhead metal halide 1000-Watt lamps as necessary. The plants were employed for testing when they reached the second or third true leaf stage.
(§4) Emulsifiable concentrates of each of each pyridine carboxylate herbicide (Compound A or Compound B) were prepared at 100 grams acid equivalent per liter (g ae/L). The emulsifiable concentrates also included a safener, cloquintocet-mexyl, at 120 grams active ingredient per liter (g ai/L), unless otherwise noted below. An aliquot of each emulsifiable concentrate was placed in a 25 mL glass vial and diluted with an aqueous mixture of 1.25% (v/v) ACTIROB® B esterified rapeseed oil (Bayer Crop Science, Research Triangle Park, NC, USA) or MSO® Concentrate with LECI-TECH® methylated soybean oil (Loveland Products, Loveland, CO, USA) to obtain concentrated stock solutions at the highest application rate for each herbicide, based upon a 12 milliliter (mL) application volume at a rate of 187 liters per hectare (L/ha). The concentrated stock solutions were further diluted with an aqueous mixture of 1.25% v/v ACTIROB® B or MSO® Concentrate with LECI-TECH® to obtain stock solutions at reduced application rates for each herbicide. Spray solutions of the herbicide combinations (Compound A or Compound B plus ALS herbicide) were prepared by adding weighed amounts or aliquots of the ALS herbicides to the stock solutions of Compound A or Compound B to form 12-mL spray solutions in two- or three-way combinations.
(§5) The spray solutions were applied to the plant material with an overhead Mandel track sprayer equipped with 8002E nozzles calibrated to deliver 187 L/ha over an application area of 0.503 square meters (m^2) at a spray height of 18 inches (43 centimeters (cm)) above the average plant canopy. Control plants were sprayed in the same manner with the solvent blank. All pyridine carboxylate herbicide (component a) application rates are given as “g ae/ha” and all ALS inhibitor (component b) application rates are given as “g ai/ha.”
(§6) The treated plants and control plants were placed in a greenhouse as described above and watered by sub-irrigation to prevent wash-off of the test compounds. After 20-22 d, the condition of the test plants as compared with that of the control plants was determined visually and scored on a scale of 0 to 100 percent where 0 corresponds to no injury and 100 corresponds to complete kill.

[5] = tested on: grain sorghum (SORVU, Sorghum vulgare); assay: Greenhouse postemergence herbicidal effect; assay type: in vivo
Source text: as §3, §4, §5, §6

[6] = tested on: ivyleaf morningglory (IPOHE, Ipomoea hederacea); assay: Greenhouse postemergence herbicidal effect; assay type: in vivo
Source text: as §3, §4, §5, §6

[7] = tested on: nutsedge (CYPES, Cyperus esculentus); assay: Greenhouse postemergence herbicidal effect; assay type: in vivo
Source text: as §3, §4, §5, §6

[8] = tested on: poinsettia (EPHHL, Euphorbia heterophylla); assay: Greenhouse postemergence herbicidal effect; assay type: in vivo
Source text: as §3, §4, §5, §6

[9] = tested on: annual ryegrass (LOLMG=Lolium multiflorum subsp. gaudini); assay: Greenhouse postemergence herbicidal effect; assay type: in vivo; conditions: 20 g/ha
Source text: as §3, §4, §5, §6

[10] = tested on: giant foxtail (SETFA, Setaria faberi); assay: Greenhouse postemergence herbicidal effect; assay type: in vivo; conditions: 20 g/ha
Source text: as §3, §4, §5, §6

[11] = tested on: large crabgrass (DIGSA, Digitaria sanguinalis); assay: Greenhouse postemergence herbicidal effect; assay type: in vivo; conditions: 20 g/ha
Source text: as §3, §4, §5, §6

[12] = tested on: wild oat (AVEFA, Avena fatua); assay: Greenhouse postemergence herbicidal effect; assay type: in vivo; conditions: 20 g/ha
Source text: as §3, §4, §5, §6

[13] = tested on: barnyard grass (ECHCG, Echinochloa crus-galli); assay: Greenhouse postemergence herbicidal effect; assay type: in vivo; conditions: Penoxsulam 20 g/ha
Source text: as §3, §4, §5, §6

[14] = tested on: broadleaf signalgrass (BRAPP, Brachiaria platyphylla); assay: Greenhouse postemergence herbicidal effect; assay type: in vivo; conditions: Penoxsulam 20 g/ha
Source text: as §3, §4, §5, §6

[15] = tested on: small-flower flatsedge (CYPDI, Cyperus difformis); assay: Greenhouse postemergence herbicidal effect; assay type: in vivo; conditions: Penoxsulam 20 g/ha
Source text: as §3, §4, §5, §6

[16] = tested on: R-PAPRH = Papaver rhoeas (corn poppy), herbicide-resistant; assay: Greenhouse postemergence herbicidal effect; assay type: in vivo; conditions: Pyroxsulam 10 g/ha
Procedure, shortened: as §1

[17] = tested on: Russian thistle (SASKR, Salsola kali); assay: Greenhouse postemergence herbicidal effect; assay type: in vivo; conditions: Pyroxsulam 10 g/ha
Procedure, shortened: as §1

[18] = tested on: bird's-eye speedwell (VERPE, Veronica persica); assay: Greenhouse postemergence herbicidal effect; assay type: in vivo; conditions: Pyroxsulam 10 g/ha
Procedure, shortened: as §1

[19] = tested on: chickweed (STEME, Stellaria media); assay: Greenhouse postemergence herbicidal effect; assay type: in vivo; conditions: Pyroxsulam 10 g/ha
Procedure, shortened: as §1

[20] = tested on: cleavers (GALAP, Galium aparine); assay: Greenhouse postemergence herbicidal effect; assay type: in vivo; conditions: Pyroxsulam 10 g/ha
Procedure, shortened: as §1

[21] = tested on: corn poppy (PAPRH, Papaver rhoeas); assay: Greenhouse postemergence herbicidal effect; assay type: in vivo; conditions: Pyroxsulam 10 g/ha
Procedure, shortened: as §1

[22] = tested on: cornflower (CENCY, Cyanus segetum); assay: Greenhouse postemergence herbicidal effect; assay type: in vivo; conditions: Pyroxsulam 10 g/ha
Procedure, shortened: as §1

[23] = tested on: false chamomile (MATIN, Matricaria inodora); assay: Greenhouse postemergence herbicidal effect; assay type: in vivo; conditions: Pyroxsulam 10 g/ha
Procedure, shortened: as §1

[24] = tested on: field chamomile (ANTAR, Anthemis arvensis); assay: Greenhouse postemergence herbicidal effect; assay type: in vivo; conditions: Pyroxsulam 10 g/ha
Procedure, shortened: as §1

[25] = tested on: field violet (VIOAR, Viola arvensis); assay: Greenhouse postemergence herbicidal effect; assay type: in vivo; conditions: Pyroxsulam 10 g/ha
Procedure, shortened: as §1

[26] = tested on: ivyleaf speedwell (VERHE, Veronica hederifolia); assay: Greenhouse postemergence herbicidal effect; assay type: in vivo; conditions: Pyroxsulam 10 g/ha
Procedure, shortened: as §1

[27] = tested on: pigweed (AMARE, Amaranthus retroflexus); assay: Greenhouse postemergence herbicidal effect; assay type: in vivo; conditions: Pyroxsulam 15 g/ha
Procedure, shortened: as §1

[28] = tested on: pineapple weed (MATMT, Matricaria discoidea); assay: Greenhouse postemergence herbicidal effect; assay type: in vivo; conditions: Pyroxsulam 10 g/ha
Procedure, shortened: as §1

[29] = tested on: purple deadnettle (LAMPU, Lamium purpureum); assay: Greenhouse postemergence herbicidal effect; assay type: in vivo; conditions: Pyroxsulam 10 g/ha
Procedure, shortened: as §1

[30] = tested on: shepherd's purse (CAPBP, Capsella bursa-pastoris); assay: Greenhouse postemergence herbicidal effect; assay type: in vivo; conditions: Pyroxsulam 10 g/ha
Procedure, shortened: as §1

[31] = tested on: wild buckwheat (POLCO, Polygonum convolvulus); assay: Greenhouse postemergence herbicidal effect; assay type: in vivo
Procedure, shortened: as §1

[32] = tested on: wild chamomile (MATCH, Matricaria chamomilla); assay: Greenhouse postemergence herbicidal effect; assay type: in vivo
Procedure, shortened: as §1

[33] = tested on: wild mustard (SINAR, Sinapis arvensis); assay: Greenhouse postemergence herbicidal effect; assay type: in vivo
Procedure, shortened: as §1

[34] = tested on: wild pansy (VIOTR, Viola tricolor); assay: Greenhouse postemergence herbicidal effect; assay type: in vivo; conditions: Pyroxsulam 10 g/ha
Procedure, shortened: as §2

[35] = tested on: winter rape (BRSNW, Brassica napus); assay: Greenhouse postemergence herbicidal effect; assay type: in vivo
Procedure, shortened: as §1

[36] = tested on: common lambsquarters (CHEAL, Chenopodium album L.); assay: Greenhouse postemergence herbicidal effect; assay type: in vivo; conditions: Pyroxsulam 15 g/ha
[37] = tested on: kochia (KCHSC, Kochia scoparia); assay: Greenhouse postemergence herbicidal effect; assay type: in vivo
Procedure, shortened: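 Plants at the second or third true leaf stage received overhead spray at 187 L/ha, with the pyridine carboxylate (plus cloquintocet-mexyl safener) alone or with ALS herbicides in 1.25% v/v crop oil. Rates are in g ae/ha or g ai/ha. Visual injury versus solvent-blank controls was scored 0–100% after 20-22 d in the greenhouse.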

[38] = tested on: winter wheat (TRZAW); assay: Greenhouse postemergence crop phytotoxicity; assay type: in vivo, Triticum aestivum; conditions: Pyroxsulam 10 g/ha
Source text: as §3
as §4, with “combinations. […]” for “combinations.”
as §6

[39] = tested on: spring barley (HORVS); assay type: in vivo, Hordeum vulgare
Procedure, shortened: as §1

[40] = tested on: winter barley (HORVW); assay: Greenhouse postemergence crop phytotoxicity; assay type: in vivo, Hordeum vulgare; conditions: Pyroxsulam 10 g/ha
Source text: as §3
as §4, with “combinations. […]” for “combinations.”
as §6

COc1cc(OC)nc(Oc2cccc(Oc3nc(OC)cc(OC)n3)c2C(=O)O)n1 [Bispyribac, bispyribac]
% visual injury ([1]; Bispyribac 90 g/ha): 90% | % visual injury ([2]; Bispyribac 90 g/ha): 88% | % visual injury ([3]; Bispyribac 90 g/ha): 18% | % visual injury ([4]; Bispyribac 90 g/ha): 97% | % visual injury ([5]; Bispyribac 90 g/ha): 73% | % visual injury ([6]; Bispyribac 90 g/ha): 70% | % visual injury ([7]; Bispyribac 90 g/ha): 20% | % visual injury ([8]; Bispyribac 90 g/ha): 95%

COc1cc(OC)nc(NC(=O)NS(=O)(=O)c2ncccc2C(=O)N(C)C)n1 [Nicosulfuron, nicosulfuron]
% visual injury, Obs [9]: 96% | % visual injury, Obs [10]: 100% | % visual injury, Obs [11]: 65% | % visual injury, Obs ([7]; 20 g/ha): 40% | % visual injury, Obs [12]: 96%

COc1cnc(OC)n2nc(NS(=O)(=O)c3c(OCC(F)F)cccc3C(F)(F)F)nc12 [Penoxsulam, penoxsulam]
% visual injury Obs [13]: 60% | % visual injury Obs [14]: 32% | % visual injury Obs [15]: 17%

COc1cc(OC)nc(Oc2cccc(Oc3nc(OC)cc(OC)n3)c2C(=O)ON=C(c2ccccc2)c2ccccc2)n1 [Pyribenzoxim, pyribenzoxim]
% visual injury ([1]; Pyribenzoxim 10 g/ha): 90% | % visual injury ([2]; Pyribenzoxim 10 g/ha): 90% | % visual injury ([3]; Pyribenzoxim 10 g/ha): 13% | % visual injury ([4]; Pyribenzoxim 10 g/ha): 98% | % visual injury ([5]; Pyribenzoxim 10 g/ha): 73% | % visual injury ([6]; Pyribenzoxim 10 g/ha): 78% | % visual injury ([7]; Pyribenzoxim 10 g/ha): 0% | % visual injury ([8]; Pyribenzoxim 10 g/ha): 100%

pyroxsulam
% visual injury ([1]; Pyroxsulam 10 g/ha): 75% | % visual injury Obs ([1]; Pyroxsulam 15 g/ha): 48% | % visual injury [16]: 10% | % visual injury [17]: 100% | % visual injury [18]: 75% | % visual injury [19]: 100% | % visual injury [20]: 60% | % visual injury [21]: 5% | % visual injury [22]: 70% | % visual injury [23]: 65% | % visual injury [24]: 60% | % visual injury [25]: 80% | % visual injury [26]: 70% | % visual injury Obs [27]: 98% | % visual injury [28]: 50% | % visual injury [29]: 50% | % visual injury [30]: 90% | % visual injury ([31]; Pyroxsulam 10 g/ha): 93% | % visual injury Obs ([31]; Pyroxsulam 15 g/ha): 94% | % visual injury ([32]; Pyroxsulam 10 g/ha): 60% | % visual injury Obs ([32]; Pyroxsulam 15 g/ha): 53% | % visual injury ([33]; Pyroxsulam 10 g/ha): 99% | % visual injury Obs ([33]; Pyroxsulam 15 g/ha): 73% | % visual injury [34]: 85% | % visual injury ([35]; Pyroxsulam 10 g/ha): 99% | % visual injury Obs ([35]; Pyroxsulam 15 g/ha): 68% | % visual injury Obs [36]: 73% | Obs % visual injury ([37]; KCHSC, Pyroxsulam 15 g/ha): 13% | % visual injury ([37]; Pyroxsulam 10 g/ha): 30% | % visual injury Obs ([37]; Pyroxsulam 15 g/ha): 55% | % visual injury [38]: 0% | % visual injury ([3]; Pyroxsulam 10 g/ha): 0% | % visual injury Obs ([3]; Pyroxsulam 15 g/ha): 0% | Obs % visual injury ([3]; TRZAS, Pyroxsulam 15 g/ha): 0% | % visual injury ([39]; Pyroxsulam 10 g/ha): 0% | % visual injury Obs ([39]; Pyroxsulam 15 g/ha): 0% | % visual injury [40]: 0%
